From ChEMBL document CHEMBL3727361, “Nitrogen bicyclic compounds as inhibitors for Scyl1 and Grk5” (2014)

These molecules were tested on Beta-TC6 (assay: Increase in insulin release in mouse BetaTC6 cells assessed as relative insulin release activity at 10 uM incubated for 2 to 4 hrs by FRET based HTRF assay relative to sunitinib).
Type: functional
For `O=S1(=O)CCN(CC#Cc2ccc3nnc(-c4cscn4)n3c2)CC1`, the Activity was 10%.
Work on `CNc1ccc2ncc(-c3cccc(C(=O)N(C)C)c3)n2n1` yielded an Activity of 20%.
Molecule `N#Cc1cccc(-c2nnc3ccc(-c4ccccn4)cn23)c1` has an Activity of 20%.
`OCc1cccc(-c2cnc3cnc(-c4cccs4)cn23)c1` showed an Activity of 20%.
`Fc1cccc(-c2cnc3cnc(-c4ccc(N5CCNCC5)cc4)cn23)c1` was tested, and the Activity was 10%.
`CN(C)CCNC(=O)c1ccc(-c2cn3c(-c4ccc(N(C)C)cc4)cnc3cn2)cc1` showed an Activity of 50%.
`CN(C)CC#Cc1ccc2nnc(-c3ccccc3)n2c1` showed an Activity of 10%.
`COc1cccc(CC(=O)Nc2cnc3cnc(-c4ccc(Oc5ccccc5)cc4)cn23)c1` showed an Activity of 10%.
Work on `Cc1cc(-c2cn3c(-c4ccc5ncccc5c4)cnc3cn2)cc(C)c1O` yielded an Activity of 20%.
Molecule `Clc1ccccc1-c1ccc2nnc(-c3cccnc3)n2c1` has an Activity of 50%.
Molecule `c1cncc(-c2cnc3cnc(-c4cc5ccccc5s4)cn23)c1` has an Activity of 20%.
For `COc1cc(-c2nnc3ccc(-c4ccccc4C)cn23)ccc1O`, the Activity was 50%.
Molecule `COc1cc(-c2ccc3nnc(-c4cccc(C(F)(F)F)c4)n3c2)cc(OC)c1OC` has an Activity of 50%.
In the case of `N#Cc1ccc(-c2cnc3cnc(-c4ccsc4)cn23)cc1`, the Activity was 20%.
Work on `NC(=O)c1ccc(-c2cnc3ccc(Cc4ccc(F)c(F)c4)nn23)cc1` yielded an Activity of 20%.
`CN(C)CCCOc1ccc(-c2nnc3ccc(-c4ccc(Cl)cc4)cn23)cc1` showed an Activity of 20%.
Molecule `CS(=O)(=O)c1cccc(-c2ccc3nnc(-c4ccccn4)n3c2)c1` has an Activity of 20%.
`Cc1cc(-c2cn3c(-c4ccncc4)cnc3cn2)cc(C)c1O` was tested, and the Activity was 20%.
With `Oc1cccc(-c2cnc3cnc(-c4cc5ccccc5s4)cn23)c1` the Activity was 50%.
`Nc1cccc(-c2ccc3nnc(-c4cccc(Cl)c4)n3c2)c1` gave an Activity of 50%.
Work on `COc1cccc(CC(=O)Nc2cnc3cnc(-c4cccs4)cn23)c1` yielded an Activity of 20%.
With `COc1cccc(CC(=O)Nc2cnc3cnc(-c4ccccc4CN(C)C)cn23)c1` the Activity was 20%.
`Nc1ccc(-c2cn3c(NC(=O)c4ccccc4)cnc3cn2)cc1` gave an Activity of 20%.
Work on `CS(=O)(=O)Nc1cccc(-c2cnc3ccc(Cc4ccc(F)cc4)nn23)c1` yielded an Activity of 10%.
With `CN(C)C(=O)c1cccc(-c2ccc3nnc(-c4ccc5nccnc5c4)n3c2)c1` the Activity was 50%.
Work on `c1csc(-c2cnc3cnc(-c4ccncc4)cn23)c1` yielded an Activity of 20%.
Work on `Clc1cccc(-c2nnc3ccc(-c4cccnc4)cn23)c1` yielded an Activity of 50%.
`COc1ccc(CNc2ccc3ncc(-c4ccc(OC)cc4OC)n3n2)cc1` showed an Activity of 10%.
Molecule `O=C(Nc1cnc2cnc(-c3ccc4ccccc4c3)cn12)C1CCOC1` (stereo not given) has an Activity of 10%.
`CCOc1ccc(-c2cnc3cccnn23)cc1` gave an Activity of 10%.
`COc1cc(-c2ccc3nnc(-c4ccc5nccnc5c4)n3c2)ccc1O` was tested, and the Activity was 50%.
`C(=C\c1cnc2cccnn12)/c1ccccc1` gave an Activity of 20%.
For `N#Cc1ccc(-c2ccc3nnc(-c4cccc(O)c4)n3c2)cc1`, the Activity was 50%.
`Clc1ccccc1-c1ccc2nnc(-c3cscn3)n2c1` showed an Activity of 50%.
In the case of `Oc1cccc(-c2cnc3cnc(-c4ccc(Cl)cc4)cn23)c1`, the Activity was 20%.
`CC(=O)c1ccc(-c2cnc3cccnn23)cc1` was tested, and the Activity was 10%.
For `Fc1ccc(-c2ccc3ncc(-c4cccs4)n3n2)cc1Cl`, the Activity was 20%.
Molecule `CN(C)C(=O)c1ccc(-c2cnc3cnc(-c4ccccc4Oc4ccccc4)cn23)cc1` has an Activity of 20%.
`COc1cc(-c2cn3c(-c4ccc5ncccc5c4)cnc3cn2)ccc1O` showed an Activity of 20%.
In the case of `NC(=O)c1ccc(-c2ccc3ncc(-c4ccccc4)n3n2)cc1`, the Activity was 20%.
Work on `COc1ccc(-c2ccc3nnc(-c4ccccc4C)n3c2)cc1OC` yielded an Activity of 50%.
`Clc1ccc(-c2cnc3cnc(-c4ccsc4)cn23)cc1` was tested, and the Activity was 50%.
`CCOc1cccc(-c2cn3c(-c4cccc(CO)c4)cnc3cn2)c1` showed an Activity of 20%.
Work on `CN(C)C(=O)c1ccc(-c2cnc3cnc(-c4ccc5c(ccn5C)c4)cn23)cc1` yielded an Activity of 20%.
For `COc1ccc(-c2cnc3ccc(N[C@H](CO)C(C)C)nn23)c(OC)c1`, the Activity was 20%.
Work on `Cc1ccccc1-c1cn2c(-c3ccc4c(c3)OCO4)cnc2cn1` yielded an Activity of 20%.
For `COc1ccccc1-c1ccc2ncc(-c3ccc(F)c(Cl)c3)n2n1`, the Activity was 20%.
`O=C(NC1CC1)c1ccc(-c2cn3c(-c4ccc(O)cc4)cnc3cn2)cc1` showed an Activity of 20%.
For `COc1cc(-c2cnc3cnc(-c4ccc(N5CCN(C)CC5)nc4)cn23)cc(OC)c1OC`, the Activity was 20%.
With `c1ccc(-c2ccc3ncc(-c4ccc5c(c4)OCO5)n3n2)cc1` the Activity was 20%.
Work on `COc1ccc(-c2nnc3ccc(-c4cccc(C(=O)N(C)C)c4)cn23)cc1OC` yielded an Activity of 50%.
`Clc1cccc(-c2nnc3ccc(-c4ccc5c(c4)OCO5)cn23)c1` was tested, and the Activity was 50%.
`CCCNc1ccc2ncc(-c3ccc(C(=O)O)cc3)n2n1` was tested, and the Activity was 10%.
`Oc1cccc(-c2nnc3ccc(-c4ccc(F)cc4)cn23)c1` gave an Activity of 50%.
`COc1ccc(-c2cnc3ccc(NCCCO)nn23)cc1` gave an Activity of 10%.
Work on `CC(=O)Nc1cccc(-c2cnc3ccc(-c4cccnc4)nn23)c1` yielded an Activity of 10%.
Molecule `Cc1cccc(-c2cnc3cccnn23)c1` has an Activity of 10%.
With `CC(C)[C@@H](CO)Nc1ccc2ncc(-c3ccc(N)cc3)n2n1` the Activity was 50%.
With `c1cncc(-c2cnc3cnc(-c4ccc(N5CCOCC5)cc4)cn23)c1` the Activity was 20%.
`COc1ccc(-c2ccc3nnc(-c4ccoc4)n3c2)cc1` gave an Activity of 50%.
Work on `CN1CCN(c2ccc(-c3cnc4cccnn34)cn2)CC1` yielded an Activity of 10%.
For `Fc1cccc(-c2cn3c(-c4ccccc4)cnc3cn2)c1`, the Activity was 20%.
Work on `CC(C)Oc1cccc(-c2cn3c(-c4cccc(CO)c4)cnc3cn2)c1` yielded an Activity of 20%.
Work on `c1cc(-c2ccc3nnc(-c4ccc5c(c4)OCO5)n3c2)co1` yielded an Activity of 50%.
Molecule `Cn1cncc1C#Cc1ccc2nnc(-c3ccc4c(c3)OCO4)n2c1` has an Activity of 20%.
`CN(C)c1ccc(-c2cnc3cnc(-c4ccc(C(=O)NCCO)cc4)cn23)cc1` showed an Activity of 50%.
Molecule `CNC(=O)c1ccc(-c2ccc3nnc(-c4ccc(OCCCN(C)C)cc4)n3c2)cc1` has an Activity of 20%.
Work on `COc1cc(-c2nnc3ccc(-c4cccc(F)c4)cn23)ccc1O` yielded an Activity of 50%.
`O=C(O)CCc1ccc(-c2cnc3cnc(-c4ccccc4CO)cn23)cc1` showed an Activity of 20%.
In the case of `CN(C)CCCOc1ccc(-c2cn3c(-c4cccc(N(C)C)c4)cnc3cn2)cn1`, the Activity was 20%.
For `O=C(NC1CCCC1)c1ccc(-c2cn3c(-c4ccc(CO)cc4)cnc3cn2)cc1`, the Activity was 20%.
In the case of `COc1ccccc1CC(=O)Nc1cnc2cnc(-c3cccc(Cl)c3Cl)cn12`, the Activity was 20%.
Work on `COc1cc(-c2nnc3ccc(-c4ccc(N5CCN(C)CC5)cc4)cn23)ccc1O` yielded an Activity of 20%.
`CN(C)c1ccc(-c2cnc3cnc(-c4ccc(CO)cc4)cn23)cc1` gave an Activity of 50%.
Molecule `CC(=O)c1cccc(-c2cnc3cnc(-c4ccc(C(=O)NCCN(C)C)cc4)cn23)c1` has an Activity of 20%.
`CN(C)/C(=C1\N=C(c2ccccc2)OC1=O)c1cnc2cccnn12` gave an Activity of 10%.
For `CC(=O)Nc1ccc(-c2cnc3ccc(-c4ccc5c(c4)OCO5)nn23)cc1`, the Activity was “>=100%”.
Molecule `CN1CCN(C(=O)c2cccc(-c3cnc4cnc(-c5ccc(OC(F)(F)F)cc5)cn34)c2)CC1` has an Activity of 20%.
`COc1cc(-c2ccc3nnc(-c4ccoc4)n3c2)cc(OC)c1OC` gave an Activity of 50%.
`CS(=O)(=O)Nc1cccc(-c2cn3c(-c4ccc(Oc5ccccc5)cc4)cnc3cn2)c1` was tested, and the Activity was 20%.
Work on `COc1cc(-c2cnc3cnc(-c4ccc5c(c4)OCO5)cn23)ccc1O` yielded an Activity of 20%.
Work on `N#Cc1ccc(-c2cnc3cnc(-c4cccs4)cn23)cc1` yielded an Activity of 20%.
In the case of `Nc1cccc(-c2ccc3ncc(-c4cccc(Cl)c4)n3n2)c1`, the Activity was 20%.
In the case of `CC(=O)Nc1ccc(-c2cnc3ccc(-c4ccc(N5CCOCC5)cc4)nn23)cc1`, the Activity was “>=100%”.
`Nc1ccc(-c2cnc3ccc(Cc4ccccc4)nn23)cn1` was tested, and the Activity was 20%.
In the case of `COc1cc(-c2cn3c(-c4ccccc4Cl)cnc3cn2)ccc1O`, the Activity was 20%.
`OCc1ccc(-c2cn3c(-c4cccs4)cnc3cn2)cc1` was tested, and the Activity was 20%.
`c1cncc(CCNc2ccc3ncc(-c4ccc(N5CCOCC5)cc4)n3n2)c1` was tested, and the Activity was 50%.
`Cn1ccc2cc(-c3cnc4cnc(-c5cccc(C(N)=O)c5)cn34)ccc21` was tested, and the Activity was 20%.
Molecule `FC(F)(F)Oc1cccc(-c2ccc3nnc(-c4ccncc4)n3c2)c1` has an Activity of 20%.
Molecule `Oc1cccc(-c2cnc3cnc(-c4cccs4)cn23)c1` has an Activity of 20%.
With `Nc1cccc(-c2cn3c(NC(=O)Cc4ccc(F)c(F)c4)cnc3cn2)c1` the Activity was 10%.
Work on `Oc1ccc(-c2cnc3cnc(-c4ccc(Cl)cc4)cn23)cc1` yielded an Activity of 20%.
Work on `Nc1ccc(-c2cn3c(-c4cccs4)cnc3cn2)cn1` yielded an Activity of 20%.
Work on `COc1cc(-c2cn3c(-c4ccc5c(ccn5C)c4)cnc3cn2)ccc1O` yielded an Activity of 20%.
`COc1cc(-c2ccc3ncc(-c4cccs4)n3n2)ccc1O` was tested, and the Activity was 20%.
Work on `FC(F)(F)Oc1cccc(-c2cnc3cnc(-c4cccnc4)cn23)c1` yielded an Activity of 20%.
Work on `CN1CCN(C(=O)c2cccc(-c3cnc4cnc(-c5ccccc5Oc5ccccc5)cn34)c2)CC1` yielded an Activity of 20%.
Work on `CSc1ccc(-c2cn3c(-c4cccnc4)cnc3cn2)cc1` yielded an Activity of 20%.
With `CC(=O)c1cccc(-c2cnc3ccc(-c4ccc(N)nc4)nn23)c1` the Activity was 20%.
Molecule `c1cc2c(cc1CNc1ccc3ncc(-c4ccc(N5CCOCC5)cc4)n3n1)OCO2` has an Activity of 20%.
With `COc1cc(CNc2ccc3ncc(-c4ccc(N(C)C)cc4)n3n2)cc(OC)c1OC` the Activity was 10%.
`Cn1cc(-c2ccc3nnc(-c4ccc5c(c4)OCO5)n3c2)cn1` was tested, and the Activity was 50%.
Work on `CCOc1cccc(-c2cnc3cccnn23)c1` yielded an Activity of 10%.
`CN(C)c1ccc(-c2cnc3cnc(-c4ccccc4N(C)C)cn23)cc1` gave an Activity of 20%.
`CSc1ccccc1-c1cnc2cccnn12` gave an Activity of 50%.
Molecule `c1cncc(-c2cnc3ccc(-c4cccs4)nn23)c1` has an Activity of 20%.
`c1ccc(-c2nnc3ccc(-c4ccc5c(c4)OCO5)cn23)cc1` was tested, and the Activity was 50%.
For `COc1ccc(-c2nnc3ccc(-c4cccc(N(C)C)c4)cn23)cc1OC`, the Activity was 50%.
With `CN(C)c1cccc(-c2cnc3cnc(-c4ccc(CO)cc4)cn23)c1` the Activity was 20%.
